Data as given in patent US20140073651A1, “BENZAMIDE DERIVATIVES AS P2X7 RECEPTOR ANTAGONISTS” (Actelion Pharmaceuticals Ltd., priority 2011, published 2014).

biological target: T1, human recombinant P2X7 receptor (Homo sapiens, UniProt Q99572); experiment: YO-PRO assay (YO-PRO-1 uptake) in HEK cells stably expressing P2X7; type: cell-based; conditions: HEK-293 cells expressing human recombinant P2X7 receptor; ATP 250 μM, 90 minutes; YO-PRO-1 fluorescence (FLIPR tetra); read-out: IC50 (antagonistic activity with respect to the P2X7 receptor)
T1 construct: expressed in transfected cells
T1 sequence (Q99572 1-595): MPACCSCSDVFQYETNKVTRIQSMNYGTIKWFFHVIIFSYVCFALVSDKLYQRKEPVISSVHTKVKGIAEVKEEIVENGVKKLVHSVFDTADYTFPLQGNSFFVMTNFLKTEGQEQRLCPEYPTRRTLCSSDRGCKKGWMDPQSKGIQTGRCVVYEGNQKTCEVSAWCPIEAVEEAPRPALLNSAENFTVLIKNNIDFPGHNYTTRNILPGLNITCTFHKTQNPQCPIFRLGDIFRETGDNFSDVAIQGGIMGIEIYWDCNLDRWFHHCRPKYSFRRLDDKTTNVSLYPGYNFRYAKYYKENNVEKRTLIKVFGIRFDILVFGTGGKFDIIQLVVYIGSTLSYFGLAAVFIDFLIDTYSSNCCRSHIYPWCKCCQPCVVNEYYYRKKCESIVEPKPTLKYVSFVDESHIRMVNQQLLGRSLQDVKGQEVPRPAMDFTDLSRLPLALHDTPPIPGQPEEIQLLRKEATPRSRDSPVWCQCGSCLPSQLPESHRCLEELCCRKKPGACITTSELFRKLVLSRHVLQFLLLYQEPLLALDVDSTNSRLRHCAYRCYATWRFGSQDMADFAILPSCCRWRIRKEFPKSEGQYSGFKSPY
Protocol: Cell line generation was performed in general according to established molecular cloning protocols. Specifically, RNA was extracted from human whole blood using the Qiagen RNeasy kit (Qiagen, CH) according to the manufacturer's instructions. Subsequently cDNA was made (Superscript II, Invitrogen AG, CH) and the human P2X7 gene (genbank ref. BC011913) was amplified with the following primers: [NT] and [NT] The amplified sequence was subsequently ligated into a pcDNA3.1 (+) NotI, NheI digested plasmid. […] Following a 24 h exposure to DNA, cells were trypsinized and re-seeded at low density in the presence of 250 μg Geneticin. Geneticin resistant cells were then selected during two consecutive rounds of cloning by serial limiting dilution with visual inspection. Individual clones were screened for P2X7 expression by applying ATP and recording the resultant uptake of YO-[…]. Specific cell clones were chosen based on RNA and protein expression. HEK cells stably expressing P2X7 were used to screen drugs using the YO-[…] assay. Cells were grown to confluency in adherent culture at 37° C. in a humidified 5% CO2 incubator (split 1/5 every 3-4 days with DMEM, 10% FCS, 1% Penicillin/Streptomycin, 250 μg/ml Geneticin). Adherent cells were detached by incubation with Trypsine (1 ml per 165 cm^2 dish) for 2 minutes, then washed off with 10 ml PBS (without Mg^2+ and Ca^2+), and resuspended in DMEM, 10% FCS, 1% Penicillin/Streptomycin, no Geneticin. 10'000 cells per well (48 hours before the assay) or 25'000 cells per well (Vi-cell XR (Beckman Coulter) (24 hours before the assay) in 50 μl full medium were seeded on 384-well black-wall, clear bottom plates, that were coated before with 10 μl per well Poly-L-Lysine, incubated for 30-60 minutes at 37° C. and washed once with PBS. Medium was removed from cells and 50 μl of assay buffer containing 0.5 μM YO-[…] was added into the wells. Solutions of antagonist compounds were prepared by serial dilutions of a 10 mM DMSO solution of the antagonist into PBS using a BioMek (Beckman Coulter). Each concentration was performed in duplicate. […] During this time period, four time points were taken. Each time point comprised the average of several measurements made within a few seconds. […] The FLIPR tetra was equipped with Molecular Devices Screen Works system control software to define and run experimental protocols. […] For IC50 measurements the maximum intensity is plotted against the concentration of compound to determine IC50 values.

IC50 [nM]	Compound
265	O=C(NCC1(O)CCCCC1)c1cc([S+]([O-])c2ccccn2)ccc1Cl (racemic) [Example 133, rac-2-Chloro-N-(1-hydroxy-cyclohexylmethyl)-5-(pyridine-2-sulfinyl)-benzamide]
640	O=C(NCC1(O)CCCCC1)c1cc([S+]([O-])c2ccnc(Cl)n2)ccc1Cl (racemic) [Example 136, rac-2-Chloro-5-(2-chloro-pyrimidine-4-sulfinyl)-N-(1-hydroxy-cyclohexylmethyl)-benzamide]
914	COc1nccc([S+]([O-])c2ccc(Cl)c(C(=O)NCC3(O)CCCCC3)c2)n1 (racemic) [Example 140, rac-2-Chloro-N-(1-hydroxy-cyclohexylmethyl)-5-(2-methoxy-pyrimidine-4-sulfinyl)-benzamide]
25	O=C(NCC1(O)CCCCC1)c1cc(C(F)c2cc[nH]c(=O)n2)ccc1Cl (racemic) [Example 152, rac-2-Chloro-5-[fluoro-(2-oxo-1,2-dihydro-pyrimidin-4-yl)-methyl]-N-(1-hydroxy-cyclohexylmethyl)-benzamide]
14	CC(O)(c1ccc(Cl)c(C(=O)NCC2(O)CCCCC2)c1)c1cc[nH]c(=O)n1 (racemic) [Example 156, rac-2-Chloro-N-(1-hydroxy-cyclohexylmethyl)-5-[1-hydroxy-1-(2-oxo-1,2-dihydro-pyrimidin-4-yl)-ethyl]-benzamide]
346	COc1nccc(C(C)(O)c2ccc(Cl)c(C(=O)NCC3(O)CCCCC3)c2)n1 (racemic) [Example 159, rac-2-Chloro-N-(1-hydroxy-cyclohexylmethyl)-5-[1-hydroxy-1-(2-methoxy-pyrimidin-4-yl)-ethyl]-benzamide]
9	CC(O)(c1ccc(Cl)c(C(=O)NCC2(O)CCCCC2)c1)c1cc[nH]c(=O)n1 (single isomer, unassigned) [Example 157, 2-Chloro-N-(1-hydroxy-cyclohexylmethyl)-5-[1-hydroxy-1-(2-oxo-1,2-dihydro-pyrimidin-4-yl)-ethyl]-benzamide]
66	CC(O)(c1ccc(Cl)c(C(=O)NCC2(O)CCCCC2)c1)c1cc[nH]c(=O)n1 (single isomer, unassigned) [Example 158]
111	O=C(NCC1(O)CCCCC1)c1cc(Nc2ccccc2)ccc1Cl [Example 1, 2-Chloro-N-(1-hydroxy-cyclohexylmethyl)-5-phenylamino-benzamide]
315	CN(c1ccccc1)c1ccc(Cl)c(C(=O)NCC2(O)CCCCC2)c1 [Example 2, 2-Chloro-N-(1-hydroxy-cyclohexylmethyl)-5-(methyl-phenyl-amino)-benzamide]
538	COCCN(c1ccccc1)c1ccc(Cl)c(C(=O)NCC2(O)CCCCC2)c1 [Example 3, 2-Chloro-N-(1-hydroxy-cyclohexylmethyl)-5-[(2-methoxy-ethyl)-phenyl-amino]-benzamide]
103	O=C(NCC1(O)CCCCC1)c1cc(Nc2ccccc2F)ccc1Cl [Example 4, 2-Chloro-5-(2-fluoro-phenylamino)-N-(1-hydroxy-cyclohexylmethyl)-benzamide]
531	CN(c1ccc(Cl)c(C(=O)NCC2(O)CCCCC2)c1)c1ccccc1F [Example 5, 2-Chloro-5-[(2-fluoro-phenyl)-methyl-amino]-N-(1-hydroxy-cyclohexylmethyl)-benzamide]
154	O=C(NCC1(O)CCCCC1)c1cc(Nc2ccc(F)cc2F)ccc1Cl [Example 6, 2-Chloro-5-(2,4-difluoro-phenylamino)-N-(1-hydroxy-cyclohexylmethyl)-benzamide]
876	CN(c1ccc(Cl)c(C(=O)NCC2(O)CCCCC2)c1)c1ccc(F)cc1F [Example 7, 2-Chloro-5-[(2,4-difluoro-phenyl)-methyl-amino]-N-(1-hydroxy-cyclohexylmethyl)-benzamide]
459	O=C(NCC1(O)CCCCC1)c1cc(Nc2ccncn2)ccc1Cl [Example 8, 2-Chloro-N-(1-hydroxy-cyclohexylmethyl)-5-(pyrimidin-4-ylamino)-benzamide]
481	CN(c1ccc(Cl)c(C(=O)NCC2(O)CCCCC2)c1)c1ccncn1 [Example 9, 2-Chloro-N-(1-hydroxy-cyclohexylmethyl)-5-(methyl-pyrimidin-4-yl-amino)-benzamide]
890	O=C(NCC1(O)CCCCC1)c1cc(Nc2ccnc(Cl)n2)ccc1Cl [Example 10, 2-Chloro-5-(2-chloro-pyrimidin-4-ylamino)-N-(1-hydroxy-cyclohexylmethyl)-benzamide]
184	CN(c1ccc(Cl)c(C(=O)NCC2(O)CCCCC2)c1)c1ccnc(Cl)n1 [Example 11, 2-Chloro-5-[(2-chloro-pyrimidin-4-yl)-methyl-amino]-N-(1-hydroxy-cyclohexylmethyl)-benzamide]
733	COc1nccc(Nc2ccc(Cl)c(C(=O)NCC3(O)CCCCC3)c2)n1 [Example 12, 2-Chloro-N-(1-hydroxy-cyclohexylmethyl)-5-(2-methoxy-pyrimidin-4-ylamino)-benzamide]
200	COc1nccc(N(C)c2ccc(Cl)c(C(=O)NCC3(O)CCCCC3)c2)n1 [Example 13, 2-Chloro-N-(1-hydroxy-cyclohexylmethyl)-5-[(2-methoxy-pyrimidin-4-yl)-methyl-amino]-benzamide]
127	CNc1nccc(N(C)c2ccc(Cl)c(C(=O)NCC3(O)CCCCC3)c2)n1 [Example 14, 2-Chloro-N-(1-hydroxy-cyclohexylmethyl)-5-[methyl-(2-methylamino-pyrimidin-4-yl)-amino]-benzamide]
177	CN(C)c1nccc(N(C)c2ccc(Cl)c(C(=O)NCC3(O)CCCCC3)c2)n1 [Example 15, 2-Chloro-5-[(2-dimethylamino-pyrimidin-4-yl)-methyl-amino]-N-(1-hydroxy-cyclohexylmethyl)-benzamide]
73	O=C(NCC1(O)CCCCC1)c1cc(Nc2ccnc(O)n2)ccc1Cl [Example 16, 2-Chloro-N-(1-hydroxy-cyclohexylmethyl)-5-(2-hydroxypyrimidin-4-ylamino)-benzamide]
35	CN(c1ccc(Cl)c(C(=O)NCC2(O)CCCCC2)c1)c1cc[nH]c(=O)n1 [Example 17, 2-Chloro-N-(1-hydroxy-cyclohexylmethyl)-5-[methyl-(2-oxo-1,2-dihydro-pyrimidin-4-yl)-amino]-benzamide]
106	CN(c1ccc(Cl)c(C(=O)NCC2(O)CCCCC2)c1)c1ccnc(=O)n1C [Example 18, 2-Chloro-N-(1-hydroxy-cyclohexylmethyl)-5-[methyl-(3-methyl-2-oxo-2,3-dihydro-pyrimidin-4-yl)-amino]-benzamide]
420	CN(c1ccc(Cl)c(C(=O)NCC2(O)CCCCC2)c1)c1ccn(C)c(=O)n1 [Example 19, 2-Chloro-N-(1-hydroxy-cyclohexylmethyl)-5-[methyl-(1-methyl-2-oxo-1,2-dihydro-pyrimidin-4-yl)-amino]-benzamide]
228	CCN(c1ccc(Cl)c(C(=O)NCC2(O)CCCCC2)c1)c1ccnc(Cl)n1 [Example 20, 2-Chloro-5-[(2-chloro-pyrimidin-4-yl)-ethyl-amino]-N-(1-hydroxy-cyclohexylmethyl)-benzamide]
17	CCN(c1ccc(Cl)c(C(=O)NCC2(O)CCCCC2)c1)c1cc[nH]c(=O)n1 [Example 21, 2-Chloro-5-[ethyl-(2-oxo-1,2-dihydro-pyrimidin-4-yl)-amino]-N-(1-hydroxy-cyclohexylmethyl)-benzamide]
